Entries after “also recorded” stand apart in the source; their conditions may differ.
Assays:
[1] = tested on: genome-wide H3K4me3 in spleen cells; assay: ChIP-seq of H3K4me3 in spleen cells; type: in vivo, mouse; details: 10 mg/kg/day, Kmt2d^+/βGeo mice
Method: ChIP-seq: Spleens were dissected from eight mice, four from each kmt2d genotype (+/βGeo or +/+) where half of each genotype was treated with AR-42 and half with vehicle only. Spleens were minced and passed through a […] cell strainer to obtain single cell suspensions. 10 million cells were used for each ChIP-seq experiment following the native chromatin immunoprecipitation protocol, as previously described (Gilfillan et al. (2012) BMC Genomics 13:645), using a ChIP-grade antibody against H3K4me3 (9727, Cell Signaling Technology, Beverly, Mass.).
ChIP-seq data analysis: Sequencing was performed using a MiSeq system (Illumina, San Diego, Calif.). 4.8-9.6 million paired-end 26 by reads were obtained per sample (Table 2; nReads=number of reads, alignRate=fraction aligned to genome; FRIP=fraction of reads in peaks). Reads were aligned to the m. musculus genome, version mm10, using Bowtie 2 (Langmead and Salzberg (2012) Nat. Methods. 9: 357-9). Each sample was examined with regard to alignment rate as well as FRIP (fraction of reads in peaks), a measure of the ChIP efficiency (Table 2). […] For analysis, reads were merged into one meta-sample and peak calling was performed using MACS version 1.4.2 (Zhang et al. (2008) Genome Biol. 9: R137). […] This created a peak by sample matrix of read counts. […] Fold change and overall abundance was calculated as per edgeR. […]

[2] = tested on: DCX positive cells in the GCL; assay: DCX (doublecortin) expression in the GCL, neurogenesis (AR-42 treated mice); type: in vivo, mouse
Description: Animals: Kmt2d^+/βGeo mice, also named Mll2Gt^(RRt024)Byg, were acquired from Bay Genomics (University of California). All experimental mice were on a mixed C57BL/6J and 129/SvEv background. Expected Mendelian ratios were observed when heterozygous animals were bred to wild-type. In heterozygous crosses, however, there was uniform embryonic lethality of homozygotes by ED12, the earliest developmental stage assayed. For treatment with AR-42 mice were orally gavaged daily with drug (Selleck Chemicals, Houston, Tex.) solubilized in vehicle (0.5% methylcellulose, 0.1% Tween-80, water) or with vehicle alone. Drug delivery information was kindly provided by Drs. Chen and Kulp from Ohio State University (Huang et al. (2011) Mol. Pharmacol. 79:197-20619). Drug was administered for 14 days and mice were sacrificed on day 15. Morris water maze testing was initiated at day 7 and a dose of 10 mg/kg/day was used for these studies. For quantification of DCX positive cells, doses of 0, 5, 10 and 25 mg/kg/day were used. Genotyping was performed using primers B-GeoF-([…]; SEQ ID NO: 1) and B-GeoR-([…]; SEQ ID NO: 2) that are specific for the targeted allele and TcrdF-([…]; SEQ ID NO: 3) and TcrdR-([…]; SEQ ID NO: 4) that control for sufficient DNA concentration. Real-time PCR using the same primers allows discrimination between the heterozygous and homozygous state for the targeted allele. Maxillary protrusion was evaluated by ten investigators blinded to genotype and they were asked to rate maxillary protrusion on radiographs as either large (2) or small (1). […] All experiments were performed using mouse protocols approved by the Animal Care and Use Committee of Johns Hopkins University School of Medicine. The mouse protocols used for this study are in accordance with the guidelines used by the NIH for mouse care and handling.
Immunofluorescence: Every 6th brain section was selected and then blocked with 5% Bovine Serum Albumin (BSA) at room temperature followed by incubation with primary antibodies overnight at 4° C. Secondary antibodies were then applied for 1 hour at room temperature, after which sections were mounted onto microscope slides with Vectamount with DAPI (Vector Laboratories, Burlingame, Calif.). Primary antibodies included Doublecortin (DCX) (SC-8066, Santa Cruz Biotechnology, Dallas, Tex., 1:200 goat), trimethylated H3K4 (9727L, Cell Signaling Technology, Beverly, Mass., 1:500 rabbit), and Kmt2d H-300 (SC-292359, Santa Cruz Biotechnology, Dallas, Tex., 1:500 rabbit). Non-specific binding was not observed when sections were sequentially exposed to serum (or IgG when appropriate) from the same species as the primary antibody for each experiment (i.e. rabbit for KMT2D and H3K4me3 and goat for doublecortin), followed by the secondary antibody used for KMT2D and H3K4me3 (anti-rabbit) or doublecortin (anti-goat, FIG. 27).
GCL and doublecortin area: The area of both the GCL and DCX+ cells was measured using the NS elements 2.0 software (Nikon, Tokyo, JPN). Normalized DCX area was calculated by measuring the DCX+ area of the GCL and setting the baseline (Kmt2d^+/+) fraction to 1. A Student t-test with significance value set at P<0.05 was used for comparison of DCX+ area referenced to GCL area between genotypes and treatment arms.

Structure (SMILES): CC(C)[C@H](C(=O)Nc1ccc(C(=O)NO)cc1)c1ccccc1 [AR-42, (S)—N-hydroxy-4-(3-methyl-2-phenylbutanamido)benzamide]
- genome-wide H3K4me3 (ChIP-seq) [1]: genome-wide increase in H3K4me3; also recorded: improved
- DCX expression in the GCL ([2]; 10 mg/kg/day, older mice (5-6 months), Kmt2d^+/βGeo): improved
- DCX expression in the GCL ([2]; 25 mg/kg/day, Kmt2d^+/+ animals): reduced DCX expression
- DCX expression in the GCL ([2]; 25 mg/kg/day, Kmt2d^+/βGeo mice): did not improve DCX expression
- DCX expression in the GCL ([2]; 25 mg/kg/day, young (1-2 month-old) and old (5-6 month-old), both genotypes): decreased DCX expression
- neurogenesis (normalized DCX expression) ([2]; 1-2 month old Kmt2d^+/βGeo mice, doses 0, 5, 10 mg/kg/day): dose-dependent increase in neurogenesis
- DCX expression in the GCL ([2]; 5 and 10 mg/kg/day, Kmt2d^+/+ or Kmt2d^+/βGeo, both age groups): preservation or restoration of DCX expression

Reference: US10568854B2, “Compositions and methods for treating kabuki syndrome and related disorders” (THE JOHNS HOPKINS UNIVERSITY, priority 2014, dated 2020)
